Assays:
Assay in all cases: NCI60 five-dose screen
Type in all cases: cell-based
SNB-19 = details: Homo sapiens; SNB-19, CNS Cancer
Description: (§1) Since all new conjugates (3a–h) had notable antiproliferative activities on several tumor cell lines in the course of the one-dose screening, they were subjected to a five-dose test. […] J. Mol. Sci. 2025, 26, 11063 10 of 10 S.3. NCI60 Screening A detailed description of the NCI screening procedures can also be found on the website of NCI [39], and in our previous work. S.3.1. One-Dose Screen All candidates were examined at first at a single high dose (10 μM) in the full NCI60 cell panel. The value reported for the one-dose test is growth relative to the no-drug control and relative to the time zero number of cells. This made possible the disclosure of both growth inhibition (numbers between 0 and 100) and lethality (numbers less than 0). For example, a value of 100 means no growth inhibition. A value of 20 would mean 80% growth inhibition. A value of 0 means no net growth over the course of the analysis. A value of −20 would mean 20% lethality. A value of −100 means all cells are dead. S.3.2. […] The human tumor cell lines of the cancer screening panel were grown in RPMI 1640 medium containing 5% fetal bovine serum and 2 mM l-glutamine. Characteristically, cells were injected in 96-well microtiter plates in 0.1 mL at plating densities ranging from 5000 to 40,000 cells/well, depending on the doubling time of individual cell lines. After cell inoculation, the microtiter plates were incubated at 37 °C, 5% carbon dioxide, 95% air, and 100% relative humidity for 24 hours before the addition of tested compounds. After 24 hours, 2 plates of each cell line were fixed in situ with Cl3COOH (TCA), to represent a measurement of the cell population for each cell line at the time of drug addition (tz). Tested compounds were solubilized in DMSO at 400-fold the desired final maximum test concentration and stored frozen before application. In the course of the drug addition, an aliquot of frozen concentrate was thawed and diluted to twice the desired final maximum test concentration with a complete medium containing 50 μg mL−1 gentamicin. Additional four, 10-fold or ½ log serial dilutions were produced to furnish a total of five drug concentrations plus control. Aliquots of 0.1 mL of these different drug dilutions were added to the appropriate microtiter wells already containing 0.1 mL of medium, resulting in the required final drug concentrations. Following drug addition, the plates were incubated at 37 °C, 5% carbon dioxide, 95% air, and 100% relative humidity for an additional 48 hours. For adherent cells, the test was finished by the addition of cold Cl3COOH. Cells were fixed in situ by the addition of 50 μL of cold 50% (w/v) Cl3COOH, and incubated at 4 °C for 1 hour. The supernatant was discarded, and the plates were washed with H2O (5×) and dried in air. Sulforhodamine B (SRB) solution (0.1 mL) at 0.4% (w/v) in 1% CH3COOH was added to each well, and plates were incubated at RT for 10 min. After staining, the unbound dye was removed by washing five times with 1% CH3COOH, and the plates were dried in the air. The bound stain is afterward solubilized with a 10 mM trizma base, and the absorbance is read on an automated plate reader at λ = 515 nm. Utilizing the seven absorbance measurements [time zero (tz), control growth (c), and test growth in the presence of the drug at the five concentration levels (ti)], the percentage growth was determined at each of the drug concentration levels. Growth inhibition (%) was calculated as: [(ti − tz)/(c − tz)] × 100, for concentrations where ti ≥ tz (1) [(ti − tz)/(tz)] × 100, for concentrations where ti < tz. (2) Three dose‒response parameters were calculated as follows. GI50 (growth inhibition of 50%) was determined from Equation (3), which is the drug concentration resulting in a 50% reduction in the net protein increase (as measured by SRB staining) in control cells in the course of the drug incubation. [(ti − tz)/(c − tz)] × 100 = 50 (3)

CCRF-CEM = details: Homo sapiens, Leukemia
Description: as §1

UACC-257 = details: Homo sapiens; UACC-257, Melanoma
Description: as §1

IGROV1 = details: Homo sapiens, IGROV-1; IGROV1, Ovarian Cancer
Description: as §1

NCI-H23 = details: Homo sapiens; NCI-H23, Non-small-Cell Lung Cancer
Description: as §1

KM12 = details: Homo sapiens; KM12, Colon Cancer
Description: as §1

SR = details: Homo sapiens, Leukemia
Description: as §1

RXF 393 = details: Homo sapiens; RXF 393, Renal Cancer
Description: as §1

MCF7 = details: Homo sapiens; MCF7, Breast Cancer
Description: as §1

HS 578T = details: Homo sapiens, Breast Cancer
Description: as §1

UACC-62 = details: Homo sapiens; UACC-62, Melanoma
Description: as §1

PC-3 = details: Homo sapiens; PC-3, Prostate Cancer
Description: as §1

MALME-3M = details: Homo sapiens, Melanoma
Description: as §1

SK-MEL-28 = details: Homo sapiens; SK-MEL-28, Melanoma
Description: as §1

NCI-H522 = details: Homo sapiens; NCI-H522, Non-small-Cell Lung Cancer
Description: as §1

U251 = details: Homo sapiens, U-251; U251, CNS Cancer
Description: as §1

SF-295 = details: Homo sapiens; SF-295, CNS Cancer
Description: as §1

HCC-2998 = details: Homo sapiens; HCC-2998, Colon Cancer
Description: as §1

LOX IMVI = details: Homo sapiens, Melanoma
Description: as §1

COLO 205 = details: Homo sapiens; COLO 205, Colon Cancer
Description: as §1

RPMI-8226 = details: Homo sapiens; RPMI-8226, Leukemia
Description: as §1

K-562 = details: Homo sapiens, K562; K-562, Leukemia
Description: as §1

Compound | GI50 (SNB-19) [nM] | GI50 (CCRF-CEM) [nM] | GI50 (UACC-257) [nM] | GI50 (IGROV1) [nM] | GI50 (NCI-H23) [nM] | GI50 (KM12) [nM] | GI50 (SR) [nM] | GI50 (MCF7) [nM] | GI50 (HS 578T) [nM] | GI50 (UACC-62) [nM] | GI50 (PC-3) [nM] | GI50 (MALME-3M) [nM] | GI50 (SK-MEL-28) [nM] | GI50 (NCI-H522) [nM] | GI50 (U251) [nM] | GI50 (SF-295) [nM] | GI50 (HCC-2998) [nM] | GI50 (LOX IMVI) [nM] | GI50 (COLO 205) [nM] | GI50 (RPMI-8226) [nM] | further results
O=c1cc(-c2ccccc2)oc2cc(OCCCC[P+](c3ccccc3)(c3ccccc3)c3ccccc3)cc(O)c12 [3a] | 279 | 335 | 282 | 405 | 302 | 401 | 289 | 291 | 306 | 292 | 305 | 270 | 474 | 228 | 315 | 297 | 345 | 326 | 1020 | 205 | GI50 (RXF 393): 225 nM; GI50 (K-562): 216 nM
Cc1ccc([P+](CCCCOc2cc(O)c3c(=O)cc(-c4ccccc4)oc3c2)(c2ccc(C)cc2)c2ccc(C)cc2)cc1 [3b] | 295 | 324 | 367 | 416 | 241 | 160 | 261 | 268 | 366 | 344 | 182 | 381 | 514 | 274 | 279 | 215 | 380 | 287 | 419 | 144 | GI50 (RXF 393): 333 nM; GI50 (K-562): 137 nM
COc1ccc([P+](CCCCOc2cc(O)c3c(=O)cc(-c4ccccc4)oc3c2)(c2ccc(OC)cc2)c2ccc(OC)cc2)cc1 [3c] | 333 | 367 | 277 | 413 | 423 | 207 | 300 | 407 | 332 | 317 | 320 | 287 | 453 | 405 | 276 | 1060 | 300 | 355 | 455 | 235 | GI50 (RXF 393): 257 nM; GI50 (K-562): 376 nM
O=c1cc(-c2ccccc2)oc2cc(OCCCC[P+](c3ccc(F)cc3)(c3ccc(F)cc3)c3ccc(F)cc3)cc(O)c12 [3d] | 1670 | 2310 | 1660 | 1890 | 1650 | 1700 | 1990 | 1620 | 1980 | 2050 | 1760 | 2040 | 1690 | 1820 | 1670 | 1520 | 1670 | 1690 | 1620 | 1310 | GI50 (RXF 393): 1820 nM; GI50 (K-562): 1400 nM
O=c1cc(-c2ccccc2)oc2cc(OCCCC[P+](C3CCCCC3)(C3CCCCC3)C3CCCCC3)cc(O)c12 [3e] | 505 | 477 | 267 | 774 | 1340 | 382 | 260 | 956 | 838 | 368 | 501 | 397 | 423 | 457 | 287 | 1400 | 504 | 938 | 812 | 182 | GI50 (RXF 393): 461 nM; GI50 (K-562): 402 nM
COc1c(C)cc([P+](CCCCOc2cc(O)c3c(=O)cc(-c4ccccc4)oc3c2)(c2cc(C)c(OC)c(C)c2)c2cc(C)c(OC)c(C)c2)cc1C [3f] | 276 | 103 | 298 | 346 | 283 | 195 | 162 | 260 | 361 | 312 | 276 | 310 | 491 | 221 | 67 | 240 | 297 | 284 | 791 | 110 | GI50 (RXF 393): 191 nM; GI50 (K-562): 34 nM
Cc1ccccc1[P+](CCCCOc1cc(O)c2c(=O)cc(-c3ccccc3)oc2c1)(c1ccccc1C)c1ccccc1C [3g] | 353 | 242 | 261 | 428 | 243 | 280 | 206 | 267 | 232 | 319 | 308 | 353 | 323 | 341 | 225 | 648 | 239 | 170 | 351 | 135 | GI50 (K-562): 279 nM
O=c1cc(-c2ccccc2)oc2cc(OCCCC[P+](c3ccccc3)(c3ccccc3)c3ccccn3)cc(O)c12 [3h] | 524 | 334 | 298 | 653 | 776 | 523 | 214 | 396 | 1130 | 549 | 572 | 594 | 570 | 320 | 335 | 1360 | 445 | 694 | 1640 | 248 | GI50 (RXF 393): 608 nM; GI50 (K-562): 189 nM
